These results are taken from US8546085B2, “Methods of identifying modulators of the bitter taste receptor TAS2R44” (Givaudan SA, priority 2008, dated 2013).

Common to all, as to format: cell-based
The target of assay [1] is T1, TAS2R44 (Homo sapiens, UniProt P59538, L162M).
T1 construct: The full length gene of human TAS2R44 was amplified by polymerase chain reaction (PCR) using gene-specific primers that span the entire coding region; RSS tag (first 45 amino acids of rat somatostatin receptor subtype 3, plus EcoRI site) (N); expressed in transfected cells; host or cells: HEK293T/Galpha16-gustducin 44 cells, stably transfected with pcDNA3.1Zeo-TAS2R44
T1 sequence (P59538 with tags, fused parts or gaps L162M): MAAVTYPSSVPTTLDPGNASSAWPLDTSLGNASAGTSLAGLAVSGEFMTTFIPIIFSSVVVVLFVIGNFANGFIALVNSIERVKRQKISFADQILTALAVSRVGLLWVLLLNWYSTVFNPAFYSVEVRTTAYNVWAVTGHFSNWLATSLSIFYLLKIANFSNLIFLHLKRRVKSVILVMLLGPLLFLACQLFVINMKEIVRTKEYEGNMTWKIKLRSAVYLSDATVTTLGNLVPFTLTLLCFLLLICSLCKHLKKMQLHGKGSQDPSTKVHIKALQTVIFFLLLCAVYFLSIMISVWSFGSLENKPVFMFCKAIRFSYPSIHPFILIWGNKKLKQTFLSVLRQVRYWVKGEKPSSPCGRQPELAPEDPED
In words: Fluo-4 calcium assay, activation of TAS2R44 by agonists. Conditions: for EC50: HEK293T cells stably expressing Gα16-gustducin44 and TAS2R44, nonlinear regression, read-out: calculated EC50 value for TAS2R44; for calcium signaling upon addition: cells stably expressing human TAS2R44. The protocol: Fluo-4AM (Invitrogen, Carlsbad, Calif., US) is a fluorescent indicator of intracellular calcium dynamics (change in concentration) and allows monitoring changes in the calcium concentration, particularly an increase in response to receptor activation occurring after agonist exposure.
At day 0, the HEK293T cell line expressing Gα16-gustducin44 and a TAS2R bitter taste receptor formed as described in examples 2b or 2c was seeded in antibiotic-free growth medium (standard DMEM with 10% (v/v) heat-inactivated fetal bovine serum, 2 mM L-glutamine[…]) into black wall/clear bottom 96-well plates, coated with poly(ethylenimine) (0.005% v/v) at a concentration of 15,000 cells per well and incubated for 48 hours in humidified atmosphere (37° C., 5% CO2).
At the time of the assay, the growth medium was discarded and the cells were in humidified atmosphere (37° C., 5% CO2) for 1 hour with 50 μl of loading buffer consisting of 1.5 μM Fluo-4 AM and […] probenicid (Sigma-Aldrich, St. Louis, Mo., US) in DMEM.
Afterwards, the 96-well plate was washed 5 times with 100 μl of assay buffer (130 mM NaCl, 5 mM KCl, 10 mM HEPES, 2 mM CaCl2, and 5 mM dextrose, pH 7.4) per well, using an automated plate washer (BioTek). The plate was further incubated for 30 minutes at room temperature in the dark to allow for complete de-esterification of the Fluo-4. Afterwards the plate was washed 5 times with 100 μl of assay buffer per well, and reconstituted with 100 μl of assay buffer per well.
For assay reading, the plate was placed in a Fluorometric Imaging Plate Reader (FLIPR) (FLIPR-TETRA™, Molecular Devices, Sunnyvale, Calif., US), and receptor activation was initiated by addition of 100 μl of a twofold concentrated agonist stock solution (to give the desired agonist end concentration when added to the 100 microliter assay buffer volume), which was prepared in assay buffer.
Fluorescence was continuously monitored for 20 seconds to give a signal baseline (averaged to give F0) prior to agonist addition and for 120 seconds after agonist addition. The change in signal divided by F0 gives ΔF/F0 indicated in the table, with ΔF being the maximum signal occurring within the 120 seconds minus the minimum signal (occurring within the 120 seconds after agonist addition.
All data was collected from at least two independent experiments each carried out in triplicate.
A concentration-response analysis was performed and EC50 values were calculated by nonlinear regression using the function f(x)=(a−d)/(1+(x/C)^nh)+d; with a=minimum signal, d=maximum signal, nh=hill coefficient, C=EC50. , and x=agonist concentration. EC50 is the molar concentration of an agonist which produces 50% of the maximum possible effective response for that agonist.
(§1) The obtained calcium signals were corrected for the response of cells expressing only the G Proteinα subunit (Gα16-gustducin44) and normalized to the fluorescence of cells prior to the stimulus using ΔF/F0 (Fmax−Fmin/F0).
To confirm that the cell line formed in example 2c stably expresses the bitter taste receptor TAS2R44, a concentration-response curve for saccharin, a known agonist of TAS2R44, was generated. […] The standard deviation (+/−STD) is also indicated.
The intracellular calcium response following addition of steviol glycosides (stevioside, rebaudioside A) was determined in HEK293T cell line stably expressing Gα16-gustducin44 and TAS2R44 formed as described in example 2a.

Assay [2] deals with HEK293T Gα16gustducin44 cells (that do not express TAS2R44). Description: Fluo-4 calcium assay, negative control cells without TAS2R44. The following applies: for change in signal in the negative control: cells expressing only Gα16-gustducin44.
Excerpt: as §1
As a negative control to determine unspecific signals, each of the applied concentrations of each F(I) steviol glycoside was applied to cells expressing only Gα16gustducin44.

The target of assay [3] is T1, TAS2R44. In words: Fluo-4 calcium assay, antagonists of the response of TAS2R44 to steviol glycosides. The following applies: without bitter blocker. The protocol:
All cells were HEK293T cells stably expressing Gα16-gustducin44, or expressing Gα16-gustducin44 and TAS2R44.
The method was carried out as described in example 3 subject to the following modifications:
The samples were tested with and without candidate bitter blocker and the signals were compared. The candidate bitter blocker was dissolved in dimethylsulfoxide (DMSO), and a negative control with equivalent DMSO concentration (0.02%) was performed accordingly to exclude a potential inhibitory effect of the solvent. Furthermore, a control with the relevant steviol glycoside and DMSO (0.02%) was performed accordingly (see table in example 5).
All data was calculated as ΔF/F0 and the standard deviation (STD) is indicated in each table, see results for the identified bitter blocker 4-(2,2,3-trimethyl-cyclopentyl)-butanoic acid below.

Peptide text beside a SMILES is read from it.

The EC50 is the concentration that produces a half-maximal response.

With `C=C1C[C@@]23CC[C@H]4[C@@](C)(CCC[C@@]4(C)C(=O)O[C@@H]4O[C@H](CO)[C@@H](O)[C@H](O)[C@H]4O)[C@@H]2CC[C@]1(O[C@@H]1O[C@H](CO)[C@@H](O)[C@H](O[C@@H]2O[C@H](CO)[C@@H](O)[C@H](O)[C@H]2O)[C@H]1O[C@@H]1O[C@H](CO)[C@@H](O)[C@H](O)[C@H]1O)C3` [rebaudioside A], the EC50 at TAS2R44 [1] was 700 µM. Besides, the “calcium signaling upon addition” value at TAS2R44 [1] is “significant increase”. For the same compound, the “TAS2R44 ΔF/F0” value on TAS2R44 [1] (rebaudioside A 0.004 mM) is listed as 0.07687; at TAS2R44 [1] (rebaudioside A 0.008 mM) it was 0.07938; at TAS2R44 [1] (rebaudioside A 0.016 mM), 0.0975; at TAS2R44 [1] (rebaudioside A 0.031 mM), 0.1681; at TAS2R44 [1] (rebaudioside A 0.063 mM), 0.1619; on TAS2R44 [1] (rebaudioside A 0.125 mM) it was 0.32. Besides, the “TAS2R44 ΔF/F0” value at TAS2R44 [1] (rebaudioside A 0.625 mM) came to 0.7025; at TAS2R44 [1] (rebaudioside A 2.500 mM) it was 0.7819; at TAS2R44 [1] (rebaudioside A 5.000 mM), 0.6262. In addition, in assay [2], the “change in signal in the negative control” value is on record as “No significant change”. Moreover, the “Neg. Control ΔF/F0” value in assay [2] (rebaudioside A 0.004 mM) was 0.061; in assay [2] (rebaudioside A 0.008 mM) it was 0.0635; in assay [2] (rebaudioside A 0.016 mM), 0.054; in assay [2] (rebaudioside A 0.031 mM), 0.063; in assay [2] (rebaudioside A 0.063 mM), 0.0685; in assay [2] (rebaudioside A 0.125 mM) it was 0.087. Also, the entries for the “Neg. Control ΔF/F0” value in assay [2] (rebaudioside A 0.625 mM), in assay [2] (rebaudioside A 2.500 mM) and in assay [2] (rebaudioside A 5.000 mM) were 0.1115, 0.153 and 0.208, respectively. Besides, the “rebaudioside positive control average ΔF/F0” value at TAS2R44 [3] (0.7 mM rebaudioside A (EC50) alone) stood at 0.4625.
`O=C1NS(=O)(=O)c2ccccc21` [saccharin]: the “TAS2R44 ΔF/F0” value amounted to 0.024 at TAS2R44 [1] (saccharin 0.0391 mM); 0.075 at TAS2R44 [1] (saccharin 0.0781 mM); 0.181 at TAS2R44 [1] (saccharin 0.1563 mM); 0.388 at TAS2R44 [1] (saccharin 0.3125 mM); 0.668 at TAS2R44 [1] (saccharin 0.6250 mM); 0.947 at TAS2R44 [1] (saccharin 1.2500 mM). Besides, the results for the “TAS2R44 ΔF/F0” value on TAS2R44 [1] (saccharin 2.5000 mM), at TAS2R44 [1] (saccharin 5.0000 mM) and on TAS2R44 [1] (saccharin 10.0000 mM) were 1.150, 1.258 and 1.354, respectively. Further, in assay [2], the “change in signal in the negative control” value is given as “did not show any significant change in signal”. Also, the “Neg. Control ΔF/F0” value in assay [2] (saccharin 10.0000 mM) was 0.020.
Regarding `COC(=O)[C@H](Cc1ccccc1)NC(=O)[C@@H](N)CC(=O)O` [aspartame] (H-Asp-Phe-OMe), the “agonist for TAS2R44” value on TAS2R44 [1] (sweeteners with a known bitter off-note) is “not to be agonists”.
Turning to `C=C1C[C@@]23CC[C@H]4[C@@](C)(CCC[C@@]4(C)C(=O)O[C@@H]4O[C@H](CO)[C@@H](O)[C@H](O)[C@H]4O)[C@@H]2CC[C@]1(O[C@@H]1O[C@H](CO)[C@@H](O)[C@H](O)[C@H]1O[C@@H]1O[C@H](CO)[C@@H](O)[C@H](O)[C@H]1O)C3` [stevioside], the EC50 at TAS2R44 [1] was 2200 µM. For the same compound, the “calcium signaling upon addition” value on TAS2R44 [1] is “significant increase”. Moreover, the “TAS2R44 ΔF/F0” value on TAS2R44 [1] (stevioside 0.004 mM) turned out to be 0.082; on TAS2R44 [1] (stevioside 0.008 mM), 0.079; on TAS2R44 [1] (stevioside 0.016 mM), 0.096; at TAS2R44 [1] (stevioside 0.031 mM) it was 0.112; at TAS2R44 [1] (stevioside 0.063 mM) it was 0.136; on TAS2R44 [1] (stevioside 0.125 mM), 0.230. The “TAS2R44 ΔF/F0” value on TAS2R44 [1] (stevioside 0.625 mM) is given as 0.451; at TAS2R44 [1] (stevioside 2.500 mM) it was 0.677; at TAS2R44 [1] (stevioside 5.000 mM) it was 1.155. In addition, the “change in signal in the negative control” value in assay [2] is “No significant change”. Besides, the “Neg. Control ΔF/F0” value in assay [2] (stevioside 0.004 mM) is listed as 0.061; in assay [2] (stevioside 0.008 mM), 0.059; in assay [2] (stevioside 0.016 mM), 0.059; in assay [2] (stevioside 0.031 mM), 0.074; in assay [2] (stevioside 0.063 mM), 0.065; in assay [2] (stevioside 0.125 mM), 0.063. For the same compound, the entries for the “Neg. Control ΔF/F0” value in assay [2] (stevioside 0.625 mM), in assay [2] (stevioside 2.500 mM) and in assay [2] (stevioside 5.000 mM) were 0.062, 0.010 and 0.435, respectively. The “stevioside positive control average ΔF/F0” value on TAS2R44 [3] (2.2 mM stevioside (EC50) alone) was 0.733.
